# Experimental data reported in PubChem BioAssay (NCI).
# Several values for one entry are separate records, joined by “and”; a condition that tells them apart may be missing. Equal values may be shown once.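 In this assay, cells in 96-well plates receive the compound at five concentrations for 48 hours. Endpoints are linearly interpolated between the surrounding concentrations. GI50: concentration for 50% inhibition of growth. TGI: concentration producing complete growth inhibition.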
# Experiments:
# Assay in all cases: NCI tumour cell line growth inhibition, 48 h
# NCI-H226 lung = system: NCI-H226 lung
# HCT-116 colon = system: HCT-116 colon
# HCT-15 colon = system: HCT-15 colon
# OVCAR-4 ovarian = system: OVCAR-4 ovarian
# SF-295 CNS = system: SF-295 CNS
# K-562 leukemia = system: K-562 leukemia
# OVCAR-5 ovarian = system: OVCAR-5 ovarian
# NCI/ADR-RES ovarian = system: NCI/ADR-RES ovarian
# SR leukemia = system: SR leukemia
# NCI-H460 lung = system: NCI-H460 lung
# CAKI-1 renal = system: CAKI-1 renal
# M14 melanoma = system: M14 melanoma
# SF-268 CNS = system: SF-268 CNS
# MDA-MB-231 breast = system: MDA-MB-231 breast
# IGROV1 ovarian = system: IGROV1 ovarian
# MDA-MB-435 = system: MDA-MB-435
SMILES,TGI (NCI-H226 lung),TGI (HCT-116 colon),TGI (HCT-15 colon),TGI (OVCAR-4 ovarian),TGI (SF-295 CNS),TGI (K-562 leukemia),TGI (OVCAR-5 ovarian),TGI (NCI/ADR-RES ovarian),TGI (SR leukemia),TGI (NCI-H460 lung),TGI (CAKI-1 renal),TGI (M14 melanoma),TGI (SF-268 CNS),TGI (MDA-MB-231 breast),TGI (IGROV1 ovarian),TGI (MDA-MB-435),GI50 (SR leukemia)
Cc1cc2c([N+](=O)[O-])cc3c(c2o1)C(=O)C=CC3=O,> 75.1 µM,10.5 µM,37.1 µM,30.2 µM,23 µM,> 100 µM,35.1 µM,65.1 µM,> 76.4 µM,36.7 µM,2.68 µM,10.6 µM,32.1 µM,40.2 µM,26.6 µM,7.81 µM,
CC(O)CCCOC(c1ccccc1)(c1ccccc1)c1ccccc1 (configuration not stated),30.2 µM,26.9 µM,29.8 µM,28.1 µM,27.4 µM,> 100 µM,30.5 µM,24 µM,> 57.4 µM,30.6 µM,29.9 µM,29.1 µM,29.8 µM,33.3 µM,29.9 µM,30.4 µM,
COC(=O)c1cc2c(cc1CC1Cc3cc4c(cc3C1)CCC4)CCC2,> 100 µM,> 100 µM,> 100 µM,> 100 µM,> 100 µM,> 100 µM,> 100 µM,> 100 µM,47.2 µM,> 100 µM,> 100 µM,> 100 µM,> 100 µM,> 100 µM,> 100 µM,> 100 µM,
COC(=O)CN1c2nc(C#N)c(C#N)nc2N(CC(=O)OC)c2nc(C#N)c(C#N)nc21,> 100 µM,3.77 µM,> 36 µM,17.3 µM,43.5 µM,> 33.9 µM,22.6 µM,> 100 µM,6.66 µM,> 71 µM,1.55 µM,5.31 µM,11.4 µM,> 52.9 µM,23.4 µM,> 100 µM,
COc1nc2ncc([C@@H](OC(C)=O)[C@@H](COC(C)=O)OC(C)=O)nc2c(=O)[nH]1,> 100 µM,> 100 µM,> 100 µM,> 100 µM,> 100 µM,> 100 µM,> 100 µM,> 100 µM,> 100 µM,> 100 µM,> 100 µM,> 100 µM,> 100 µM,> 100 µM,> 100 µM,> 100 µM,> 100 µM and 39.4 µM
CCCCNC(=S)N/N=C/c1cccc(C)n1,62.2 µM,38.8 µM,> 100 µM,> 100 µM,> 100 µM,44.5 µM,> 100 µM,> 100 µM,> 100 µM,> 100 µM,87.8 µM,48.6 µM,> 100 µM,> 100 µM,> 100 µM,> 100 µM,
C/C1=C\CC[C@@]2(C)O[C@@H]2C[C@@H](C2(C)CO2)CC/C(C)=C/CC1 (some centres not stated),30.3 µM,45.5 µM,25 µM,> 100 µM,51 µM,> 100 µM,50 µM,46.8 µM,> 100 µM,37.8 µM,39.9 µM,54.7 µM,33.9 µM,47.3 µM,> 100 µM,46.4 µM,
NC(CC1=CS(=O)(=O)c2ccc(Cl)cc21)C(=O)O (configuration not stated),> 100 µM,> 100 µM,> 100 µM,> 100 µM,> 100 µM,> 100 µM,> 100 µM,> 100 µM,> 100 µM,> 100 µM,> 100 µM,> 100 µM,> 100 µM,> 100 µM,> 100 µM,> 100 µM,
O=[N+]([O-])c1ccc(/C=C/c2cc(-c3ccccc3)nc3ccc4ccccc4c23)cc1,> 100 µM,> 100 µM,> 100 µM,> 100 µM,> 100 µM,> 100 µM,> 100 µM,> 100 µM,> 100 µM,> 100 µM,> 100 µM,> 100 µM,> 100 µM,> 100 µM,> 100 µM,> 100 µM,
Cc1cc(-c2nc3ccccc3s2)ccc1NC(=O)[C@@H](N)CCCCN,17.8 µM,19.9 µM,24.3 µM,21.3 µM,10.6 µM,> 54 µM,25.7 µM,36.5 µM,> 54.7 µM,20.8 µM,20.8 µM,7.88 µM,14.5 µM,25.3 µM,17.2 µM,10 µM,
COC(=O)c1c2c(cc3c1CCC3)CCC2,> 100 µM,> 100 µM,> 100 µM,> 100 µM,> 100 µM,> 100 µM,> 100 µM,> 100 µM,44.8 µM,> 100 µM,> 100 µM,> 100 µM,> 100 µM,> 100 µM,> 100 µM,> 100 µM,
O=C1CC(C(O)(C(F)(F)F)C(F)(F)Cl)CCC1C(O)(C(F)(F)F)C(F)(F)Cl (configuration not stated),> 10 µM,> 10 µM,> 10 µM,> 10 µM,> 10 µM,> 10 µM,> 10 µM,> 10 µM,> 10 µM,> 10 µM,> 10 µM,> 10 µM,> 10 µM,> 10 µM,> 10 µM,> 10 µM,
O=C(CNc1c(Cl)cccc1Cl)NC1C=Cc2ccc(S(=O)(=O)Nc3c(Cl)cccc3Cl)cc2C1=O (configuration not stated),> 100 µM,> 100 µM,> 100 µM,> 100 µM,> 100 µM,> 100 µM,> 100 µM,> 100 µM,> 100 µM,> 100 µM,> 100 µM,> 100 µM,> 100 µM,> 100 µM,> 100 µM,> 100 µM,
C=CCNC(=S)N=Nc1c(O)[nH]c2ccc([N+](=O)[O-])cc12,> 100 µM,> 100 µM,> 100 µM,> 100 µM,> 100 µM,> 100 µM,> 100 µM,> 100 µM,> 100 µM,> 100 µM,> 100 µM,> 100 µM,> 100 µM,> 100 µM,> 100 µM,> 100 µM,
CNc1ncnc2c1cnn2COCC(O)CO (configuration not stated),> 100 µM,> 100 µM,> 100 µM,> 100 µM,> 100 µM,> 100 µM,> 100 µM,> 100 µM,> 100 µM,> 100 µM,> 100 µM,> 100 µM,> 100 µM,> 100 µM,> 100 µM,> 100 µM,
COc1cc(-c2cc(=O)c3cc4c(=O)cc(-c5cc(OC)c(OC)c(OC)c5)oc4cc3o2)cc(OC)c1OC,46.2 µM,> 100 µM,> 100 µM,> 100 µM,40.6 µM,> 56 µM,> 100 µM,> 100 µM,> 100 µM,> 100 µM,> 31.6 µM,> 100 µM,> 94.7 µM,> 64.5 µM,> 79.1 µM,> 100 µM,
c1csc(-c2ccc(-c3cccs3)c3nsnc23)c1,> 50.2 µM,> 100 µM,> 41.4 µM,> 100 µM,> 100 µM,37.9 µM,> 100 µM,> 83.7 µM,39.9 µM,> 100 µM,> 100 µM,> 100 µM,> 59.2 µM,> 31.6 µM,> 88.4 µM,> 100 µM,
CC[n+]1[b-](C(C)(C)C)n(/N=C/C(C)(C)C)[b-](C(C)(C)C)[n+]1CC,> 100 µM,> 100 µM,> 100 µM,> 100 µM,> 100 µM,> 100 µM,> 100 µM,> 100 µM,> 100 µM,> 100 µM,> 100 µM,> 100 µM,> 100 µM,> 100 µM,> 100 µM,> 100 µM,
S=c1[nH]c2ccc(Br)cc2c(=S)s1,> 100 µM,52.1 µM,> 100 µM,38.6 µM,85.1 µM,> 100 µM,60.4 µM,> 100 µM,> 100 µM,62.4 µM,57.9 µM,95.3 µM,> 100 µM,63.7 µM,> 100 µM,67.2 µM,
COc1cc2nc(-c3cccs3)oc(=O)c2cc1OC,> 100 µM,> 100 µM,> 100 µM,> 100 µM,> 100 µM,> 100 µM,> 100 µM,> 100 µM,> 100 µM,> 100 µM,> 100 µM,> 100 µM,> 100 µM,> 100 µM,> 100 µM,> 100 µM,
COC(C)(C)[C@@H](O)[C@H]1C[C@H](C)[C@@]2(CC[C@]3(C)[C@@H]2CC[C@@H]2[C@@]4(C)CC[C@@H](OC(C)=O)C(C)(C)[C@@H]4C[C@@H](OC4OC(COC(C)=O)C(O)C(O)C4O)[C@]23C)O1 (some centres not stated),17.5 µM,11.5 µM,5.75 µM,14.4 µM,16.5 µM,21.3 µM,7.18 µM,22.5 µM,5.25 µM,15.6 µM,24.1 µM,16.5 µM,18.6 µM,24.9 µM,16.6 µM,12.3 µM,
